Measured values: PubChem BioAssay AID180 (DTP/NCI, 2004)
Values joined by “and” are separate entries in the source; they are usually repeats but may differ in a detail not shown here. Identical values can stand only once.

Tested on: BDF1 mice, Adenocarcinoma 755 s.c., tumor weight T/C
Assay: NCI In Vivo Anticancer Drug Screen. Data for tumor model Adenocarcinoma 755 (subcutaneous) in B6D2F1 (BDF1) mice
Conditions: endpoint: mean tumor weight, schedule: Q01DX011 (ip), higher = larger tumour
In short: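 Values express treated (T) relative to vehicle-dosed control (C) animals, based on survival or tumour size measured after compound treatment of mice bearing a transplanted tumour.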

Row | SMILES | T/C (dose: 6.3 mg/kg/injection, vehicle: saline) | T/C (dose: 10.0 mg/kg/injection, vehicle: saline) | T/C (dose: 20.0 mg/kg/injection, vehicle: saline) | T/C (dose: 25.0 mg/kg/injection, vehicle: methylcellulose (MC)) | T/C (dose: 25.0 mg/kg/injection, vehicle: saline) | T/C (dose: 30.0 mg/kg/injection, vehicle: saline) | T/C (dose: 40.0 mg/kg/injection, vehicle: saline) | T/C (dose: 50.0 mg/kg/injection, vehicle: saline) | T/C (dose: 60.0 mg/kg/injection, vehicle: saline) | T/C (dose: 15.0 mg/kg/injection, vehicle: methylcellulose (MC)) | T/C (dose: 31.0 mg/kg/injection, vehicle: methylcellulose (MC)) | T/C (dose: 62.0 mg/kg/injection, vehicle: methylcellulose (MC))
1 | CS(=O)(=O)OCCC(=O)NCCNC(=O)CCOS(C)(=O)=O | 167 % of control | 64 % of control | 120 % of control | 4 % of control | 65 % of control | 20 % of control | 12 % of control | 5 % of control and 10 % of control | 1 % of control | – | – | –
2 | Nc1nc(O)c(Br)c(=O)[nH]1 | – | – | – | – | – | – | – | – | – | 86 % of control | 69 % of control | 68 % of control
